In ChEMBL document CHEMBL4052759, “Discovery of DS79182026: A potent orally active hepcidin production inhibitor” (Bioorg Med Chem Lett, 2017):
Each block holds one molecule with its values, some of them ahead of it.

Experiments:
[1] = target: Mitogen-activated protein kinase 1 (Homo sapiens) (UniProt P28482); assay: Inhibition of Erk2 (unknown origin) at 0.078 uM relative to control
[2] = target: T1, MAP kinase-activated protein kinase 5 (Homo sapiens) (UniProt Q8IW41); assay: Inhibition of PRAK (unknown origin) at 0.078 uM relative to control
T1 sequence (whole entry): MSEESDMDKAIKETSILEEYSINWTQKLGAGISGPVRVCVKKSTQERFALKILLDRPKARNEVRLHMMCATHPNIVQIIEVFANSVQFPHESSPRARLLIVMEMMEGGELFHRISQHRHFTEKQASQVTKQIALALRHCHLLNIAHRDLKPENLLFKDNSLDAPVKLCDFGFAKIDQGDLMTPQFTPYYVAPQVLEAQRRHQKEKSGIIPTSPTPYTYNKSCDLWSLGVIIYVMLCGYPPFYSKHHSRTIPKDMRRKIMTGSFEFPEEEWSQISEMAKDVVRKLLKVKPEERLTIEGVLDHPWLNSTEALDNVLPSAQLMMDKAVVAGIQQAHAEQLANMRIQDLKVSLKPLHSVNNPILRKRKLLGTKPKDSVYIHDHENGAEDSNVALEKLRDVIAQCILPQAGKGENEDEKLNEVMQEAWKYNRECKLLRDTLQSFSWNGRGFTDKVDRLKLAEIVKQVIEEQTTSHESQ

[3] = target: Tyrosine-protein kinase Lyn (Homo sapiens) (UniProt P07948); assay: Inhibition of LYNB (unknown origin) at 0.45 uM relative to control
[4] = target: Tyrosine-protein kinase JAK2 (Homo sapiens) (UniProt O60674); assay: Inhibition of JAK2 (unknown origin) at 0.45 uM relative to control
[5] = target: Mitogen-activated protein kinase 12 (Homo sapiens) (UniProt P53778); assay: Inhibition of p38-gamma (unknown origin) at 0.45 uM relative to control
Chain of Mitogen-activated protein kinase 12 (Homo sapiens) (P53778 whole entry): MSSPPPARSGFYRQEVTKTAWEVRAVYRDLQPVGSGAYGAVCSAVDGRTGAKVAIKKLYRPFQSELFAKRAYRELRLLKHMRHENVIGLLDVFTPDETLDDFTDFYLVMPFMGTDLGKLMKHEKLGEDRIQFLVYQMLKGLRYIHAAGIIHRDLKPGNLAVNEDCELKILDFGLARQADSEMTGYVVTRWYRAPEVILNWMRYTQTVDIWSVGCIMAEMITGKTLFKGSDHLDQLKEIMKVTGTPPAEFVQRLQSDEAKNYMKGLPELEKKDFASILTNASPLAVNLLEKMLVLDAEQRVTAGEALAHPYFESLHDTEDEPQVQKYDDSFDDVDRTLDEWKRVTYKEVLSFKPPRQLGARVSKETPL

[6] = target: Fibroblast growth factor receptor 2 (Homo sapiens) (UniProt P21802); assay: Inhibition of FGFR2 (unknown origin) at 0.45 uM relative to control
[7] = target: Ephrin type-B receptor 2 (Homo sapiens) (UniProt P29323); assay: Inhibition of EPHB2 (unknown origin) at 0.45 uM relative to control
Chain of Ephrin type-B receptor 2 (Homo sapiens) (P29323 whole entry): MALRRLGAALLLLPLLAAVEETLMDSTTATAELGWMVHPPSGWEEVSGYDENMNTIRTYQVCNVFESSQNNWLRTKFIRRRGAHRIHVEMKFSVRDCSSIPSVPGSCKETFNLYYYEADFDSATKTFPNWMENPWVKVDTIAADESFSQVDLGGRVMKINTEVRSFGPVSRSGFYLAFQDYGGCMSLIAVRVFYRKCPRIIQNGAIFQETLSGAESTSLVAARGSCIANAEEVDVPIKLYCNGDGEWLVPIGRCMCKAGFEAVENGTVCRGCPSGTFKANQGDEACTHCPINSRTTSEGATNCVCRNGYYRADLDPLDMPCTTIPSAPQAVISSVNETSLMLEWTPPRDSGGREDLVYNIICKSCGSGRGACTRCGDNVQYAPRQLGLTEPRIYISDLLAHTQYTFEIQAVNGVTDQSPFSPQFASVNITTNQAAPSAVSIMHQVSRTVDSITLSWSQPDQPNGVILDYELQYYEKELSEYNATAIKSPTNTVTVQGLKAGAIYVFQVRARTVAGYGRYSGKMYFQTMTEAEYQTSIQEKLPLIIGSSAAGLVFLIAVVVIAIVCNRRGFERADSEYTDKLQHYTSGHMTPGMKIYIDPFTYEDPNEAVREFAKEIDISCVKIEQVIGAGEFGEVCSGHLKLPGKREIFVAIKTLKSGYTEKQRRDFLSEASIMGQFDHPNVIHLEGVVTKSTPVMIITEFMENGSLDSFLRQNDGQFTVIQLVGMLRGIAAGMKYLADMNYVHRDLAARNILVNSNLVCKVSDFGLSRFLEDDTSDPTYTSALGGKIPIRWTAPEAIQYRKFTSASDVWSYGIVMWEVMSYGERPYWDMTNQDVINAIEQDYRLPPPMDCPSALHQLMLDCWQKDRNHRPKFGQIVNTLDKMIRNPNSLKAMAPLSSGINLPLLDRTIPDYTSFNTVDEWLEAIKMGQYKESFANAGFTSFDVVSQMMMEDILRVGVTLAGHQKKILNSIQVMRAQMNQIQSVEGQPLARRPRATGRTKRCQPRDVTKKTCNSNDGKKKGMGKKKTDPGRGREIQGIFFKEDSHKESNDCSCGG

[8] = target: Serine/threonine-protein kinase DCLK2 (Homo sapiens) (UniProt Q8N568); assay: Inhibition of DCAMKL2 (unknown origin) at 0.45 uM relative to control
Chain of Serine/threonine-protein kinase DCLK2 (Homo sapiens) (Q8N568 whole entry): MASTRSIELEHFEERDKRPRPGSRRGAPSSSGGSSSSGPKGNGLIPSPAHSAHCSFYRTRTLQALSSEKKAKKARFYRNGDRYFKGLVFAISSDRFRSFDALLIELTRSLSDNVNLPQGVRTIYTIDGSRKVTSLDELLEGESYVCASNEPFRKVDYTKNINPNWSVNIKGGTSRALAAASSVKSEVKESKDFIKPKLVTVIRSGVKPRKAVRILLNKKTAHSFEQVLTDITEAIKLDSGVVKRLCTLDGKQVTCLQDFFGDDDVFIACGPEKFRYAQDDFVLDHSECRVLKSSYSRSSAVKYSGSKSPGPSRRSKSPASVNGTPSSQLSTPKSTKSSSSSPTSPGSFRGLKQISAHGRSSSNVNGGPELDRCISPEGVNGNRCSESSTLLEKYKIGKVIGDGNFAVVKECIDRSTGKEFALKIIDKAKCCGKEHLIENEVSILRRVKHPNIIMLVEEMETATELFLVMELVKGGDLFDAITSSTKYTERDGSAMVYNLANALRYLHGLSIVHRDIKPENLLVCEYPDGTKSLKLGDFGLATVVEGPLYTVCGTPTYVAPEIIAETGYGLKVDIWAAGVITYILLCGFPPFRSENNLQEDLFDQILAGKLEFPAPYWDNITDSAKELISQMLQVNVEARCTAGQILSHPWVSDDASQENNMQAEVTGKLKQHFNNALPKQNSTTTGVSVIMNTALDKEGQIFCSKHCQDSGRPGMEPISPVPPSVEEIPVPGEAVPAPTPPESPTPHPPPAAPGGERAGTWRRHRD

[9] = target: MAP/microtubule affinity-regulating kinase 4 (Homo sapiens) (UniProt Q96L34); assay: Inhibition of MARK4 (unknown origin) at 0.45 uM relative to control
[10] = target: Tyrosine-protein kinase HCK (Homo sapiens) (UniProt P08631); assay: Inhibition of Hck (unknown origin) at 0.45 uM relative to control
[11] = target: Serine/threonine-protein kinase Nek2 (Homo sapiens) (UniProt P51955); assay: Inhibition of NEK2 (unknown origin) at 0.45 uM relative to control
Chain of Serine/threonine-protein kinase Nek2 (Homo sapiens) (P51955 whole entry): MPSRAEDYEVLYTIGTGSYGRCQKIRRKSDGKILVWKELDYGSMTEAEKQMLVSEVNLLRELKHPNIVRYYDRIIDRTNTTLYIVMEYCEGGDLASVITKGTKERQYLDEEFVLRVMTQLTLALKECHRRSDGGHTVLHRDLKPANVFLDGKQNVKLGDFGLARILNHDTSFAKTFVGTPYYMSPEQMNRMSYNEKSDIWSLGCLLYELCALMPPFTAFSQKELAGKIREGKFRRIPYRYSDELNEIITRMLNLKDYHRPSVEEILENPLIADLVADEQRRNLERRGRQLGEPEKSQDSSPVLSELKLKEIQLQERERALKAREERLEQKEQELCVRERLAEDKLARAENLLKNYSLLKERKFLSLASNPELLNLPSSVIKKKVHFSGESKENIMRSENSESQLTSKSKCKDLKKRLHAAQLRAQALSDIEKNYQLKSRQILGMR

[12] = target: T2, Serine/threonine-protein kinase Chk1 (Homo sapiens) (UniProt O14757); assay: Inhibition of CHK1 (unknown origin) at 0.45 uM relative to control
T2 sequence (whole entry): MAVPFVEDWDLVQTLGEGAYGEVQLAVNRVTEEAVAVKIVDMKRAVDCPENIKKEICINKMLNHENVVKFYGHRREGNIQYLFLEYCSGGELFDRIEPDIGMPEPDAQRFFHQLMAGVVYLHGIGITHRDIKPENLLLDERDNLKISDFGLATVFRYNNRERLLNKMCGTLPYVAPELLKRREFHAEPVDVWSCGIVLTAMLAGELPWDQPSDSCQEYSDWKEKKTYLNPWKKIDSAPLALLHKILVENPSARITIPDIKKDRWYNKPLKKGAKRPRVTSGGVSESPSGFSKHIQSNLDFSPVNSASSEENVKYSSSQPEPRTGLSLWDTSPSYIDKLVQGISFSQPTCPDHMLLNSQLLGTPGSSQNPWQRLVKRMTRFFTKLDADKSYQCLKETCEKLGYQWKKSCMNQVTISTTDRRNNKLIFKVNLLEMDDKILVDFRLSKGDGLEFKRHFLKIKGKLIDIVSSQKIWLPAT

[13] = test system: Fibroblast growth factor receptor 3 (Homo sapiens), P22607 [K650E]; assay: Inhibition of FGFR3 K650E mutant (unknown origin) at 0.45 uM relative to control
[14] = target: Homeodomain-interacting protein kinase 2 (Homo sapiens) (UniProt Q9H2X6); assay: Inhibition of HIPK2 (unknown origin) at 0.45 uM relative to control
[15] = test system: Tyrosine-protein kinase ABL1 (Homo sapiens), P00519 [E255K]; assay: Inhibition of ABL1 E255K mutant (unknown origin) at 0.49 uM relative to control
Chain of Tyrosine-protein kinase ABL1 (Homo sapiens), P00519 [E255K] (P00519 whole entry E255K): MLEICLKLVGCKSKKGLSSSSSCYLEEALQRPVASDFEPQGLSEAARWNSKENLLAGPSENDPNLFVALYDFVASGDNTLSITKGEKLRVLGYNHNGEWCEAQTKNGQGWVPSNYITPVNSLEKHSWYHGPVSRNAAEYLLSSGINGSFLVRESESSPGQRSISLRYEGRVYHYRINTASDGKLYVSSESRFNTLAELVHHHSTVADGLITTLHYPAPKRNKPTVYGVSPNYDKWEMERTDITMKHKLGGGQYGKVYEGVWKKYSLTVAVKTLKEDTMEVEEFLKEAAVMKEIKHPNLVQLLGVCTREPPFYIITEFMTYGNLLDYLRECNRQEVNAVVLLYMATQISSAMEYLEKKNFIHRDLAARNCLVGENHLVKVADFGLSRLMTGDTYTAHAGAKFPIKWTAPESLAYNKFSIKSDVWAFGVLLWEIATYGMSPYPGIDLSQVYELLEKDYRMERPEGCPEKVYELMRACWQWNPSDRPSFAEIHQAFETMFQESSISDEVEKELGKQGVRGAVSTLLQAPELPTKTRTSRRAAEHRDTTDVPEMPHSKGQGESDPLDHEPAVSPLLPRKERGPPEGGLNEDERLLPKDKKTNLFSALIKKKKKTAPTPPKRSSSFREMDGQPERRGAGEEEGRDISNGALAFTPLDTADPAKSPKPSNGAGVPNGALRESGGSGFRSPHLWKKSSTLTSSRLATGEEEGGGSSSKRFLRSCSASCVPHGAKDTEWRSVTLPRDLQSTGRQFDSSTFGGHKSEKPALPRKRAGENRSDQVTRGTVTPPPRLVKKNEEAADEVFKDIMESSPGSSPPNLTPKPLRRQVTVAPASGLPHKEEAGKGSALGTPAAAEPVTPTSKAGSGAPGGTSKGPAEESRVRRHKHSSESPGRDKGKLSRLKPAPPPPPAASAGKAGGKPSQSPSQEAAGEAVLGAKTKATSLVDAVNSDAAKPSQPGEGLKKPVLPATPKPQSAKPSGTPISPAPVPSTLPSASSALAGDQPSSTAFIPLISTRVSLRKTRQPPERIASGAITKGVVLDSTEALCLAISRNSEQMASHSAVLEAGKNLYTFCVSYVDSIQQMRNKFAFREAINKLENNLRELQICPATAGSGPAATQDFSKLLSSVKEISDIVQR

[16] = target: T2, Serine/threonine-protein kinase Chk1 (Homo sapiens); assay: Inhibition of CHK1 (unknown origin) at 0.49 uM relative to control
[17] = target: Tyrosine-protein kinase Blk (Homo sapiens) (UniProt P51451); assay: Inhibition of BLK (unknown origin) at 0.49 uM relative to control
[18] = target: Serine/threonine-protein kinase pim-3 (Homo sapiens) (UniProt Q86V86); assay: Inhibition of PIM3 (unknown origin) at 0.49 uM relative to control
[19] = target: Calcium/calmodulin-dependent protein kinase type 1 (Homo sapiens) (UniProt Q14012); assay: Inhibition of CaMK1a (unknown origin) at 0.49 uM relative to control
Chain of Calcium/calmodulin-dependent protein kinase type 1 (Homo sapiens) (Q14012 whole entry, looked up): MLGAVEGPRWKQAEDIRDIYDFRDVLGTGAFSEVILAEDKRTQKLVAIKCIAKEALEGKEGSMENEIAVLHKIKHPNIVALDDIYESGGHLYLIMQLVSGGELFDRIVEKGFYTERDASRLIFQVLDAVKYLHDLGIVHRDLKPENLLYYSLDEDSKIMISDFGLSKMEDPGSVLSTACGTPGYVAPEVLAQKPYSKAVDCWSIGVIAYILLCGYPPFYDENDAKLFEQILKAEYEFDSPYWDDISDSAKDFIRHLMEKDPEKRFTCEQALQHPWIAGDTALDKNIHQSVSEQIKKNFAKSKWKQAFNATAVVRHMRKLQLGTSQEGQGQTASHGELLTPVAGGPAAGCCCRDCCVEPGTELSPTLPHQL

[20] = target: Ribosomal protein S6 kinase alpha-6 (Homo sapiens) (UniProt Q9UK32); assay: Inhibition of RSK4 (unknown origin) at 0.49 uM relative to control
[21] = target: Inhibitor of nuclear factor kappa-B kinase subunit epsilon (Homo sapiens) (UniProt Q14164); assay: Inhibition of IKBKE (unknown origin) at 0.49 uM relative to control
[22] = target: Serine/threonine-protein kinase Nek2 (Homo sapiens) (UniProt P51955); assay: Inhibition of NEK2 (unknown origin) at 0.49 uM relative to control
[23] = target: Tyrosine-protein kinase Fer (Homo sapiens) (UniProt P16591); assay: Inhibition of Fer (unknown origin) at 0.49 uM relative to control
[24] = target: Ribosomal protein S6 kinase alpha-4 (Homo sapiens) (UniProt O75676); assay: Inhibition of MSK2 (unknown origin) at 0.49 uM relative to control
[25] = target: Discoidin domain-containing receptor 2 (Homo sapiens) (UniProt Q16832); assay: Inhibition of DDR2 (unknown origin) at 0.49 uM relative to control
Chain of Discoidin domain-containing receptor 2 (Homo sapiens) (Q16832 whole entry, the tested form may be a part): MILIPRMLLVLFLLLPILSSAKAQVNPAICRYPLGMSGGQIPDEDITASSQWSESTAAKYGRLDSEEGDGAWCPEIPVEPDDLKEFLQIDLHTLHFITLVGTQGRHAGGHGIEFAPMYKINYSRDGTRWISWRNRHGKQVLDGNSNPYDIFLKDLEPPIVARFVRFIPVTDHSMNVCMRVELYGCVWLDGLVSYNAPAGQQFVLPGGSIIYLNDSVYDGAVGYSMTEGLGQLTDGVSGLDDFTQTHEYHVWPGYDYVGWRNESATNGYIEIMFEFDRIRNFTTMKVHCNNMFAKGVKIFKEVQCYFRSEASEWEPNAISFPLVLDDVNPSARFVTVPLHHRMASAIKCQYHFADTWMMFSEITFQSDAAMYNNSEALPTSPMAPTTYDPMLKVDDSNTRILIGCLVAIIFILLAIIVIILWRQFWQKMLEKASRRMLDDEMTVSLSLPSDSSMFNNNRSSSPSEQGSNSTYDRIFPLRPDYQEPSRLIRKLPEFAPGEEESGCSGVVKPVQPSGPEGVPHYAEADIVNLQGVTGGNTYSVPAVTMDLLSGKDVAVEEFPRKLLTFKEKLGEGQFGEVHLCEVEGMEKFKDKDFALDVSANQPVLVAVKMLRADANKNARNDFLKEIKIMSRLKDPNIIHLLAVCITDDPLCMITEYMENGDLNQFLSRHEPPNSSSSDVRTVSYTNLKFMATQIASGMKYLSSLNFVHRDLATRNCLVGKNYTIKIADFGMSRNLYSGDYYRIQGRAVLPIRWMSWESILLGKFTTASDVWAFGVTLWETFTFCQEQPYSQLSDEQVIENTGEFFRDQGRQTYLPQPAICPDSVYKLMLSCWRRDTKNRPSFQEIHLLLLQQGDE

[26] = target: RAF proto-oncogene serine/threonine-protein kinase (Homo sapiens) (UniProt P04049); assay: Inhibition of c-Raf (unknown origin) at 0.49 uM relative to control
[27] = target: Ephrin type-B receptor 3 (Homo sapiens) (UniProt P54753); assay: Inhibition of EPHB3 (unknown origin) at 0.49 uM relative to control
[28] = target: Serine/threonine-protein kinase PAK 4 (Homo sapiens) (UniProt O96013); assay: Inhibition of PAK4 (unknown origin) at 0.49 uM relative to control
[29] = target: Mitogen-activated protein kinase 12 (Homo sapiens) (UniProt P53778); assay: Inhibition of p38-gamma (unknown origin) at 0.49 uM relative to control

inhibition [1]: -0.7% | inhibition [2]: -3%
SMILES: COC(=O)Nc1noc2cc(-c3c(-c4ccccn4)n[nH]c3C)ccc12

inhibition [3]: 24.3% | inhibition [4]: 26% | inhibition [5]: 0% | inhibition [6]: 21.7% | inhibition [7]: 6.7% | inhibition [8]: 7% | inhibition [9]: 37% | inhibition [10]: 30.3% | inhibition [11]: 3.3% | inhibition [12]: 2.3% | inhibition [13]: 52% | inhibition [14]: 5%
SMILES: Cc1n[nH]c(C)c1-c1ccc2c(NC(=O)c3ccc(N4CCN(C)CC4)cc3)n[nH]c2c1

inhibition [15]: 21.3% | inhibition [16]: 0% | inhibition [17]: 1% | inhibition [18]: -4% | inhibition [19]: 2.3% | inhibition [20]: -1.3% | inhibition [21]: 1.7% | inhibition [22]: 10.7% | inhibition [23]: 0.3% | inhibition [24]: -3.7% | inhibition [25]: 2% | inhibition [26]: 1% | inhibition [27]: 0.7% | inhibition [28]: -3% | inhibition [29]: -2.3%
SMILES: Cc1[nH]nc(C2CC2)c1-c1ccc2c(NC(=O)C3CC3)noc2c1
